Laboratory results: patent US8546440B2, “Substituted bicyclic imidazole derivatives as gamma secretase modulators” (Janssen Pharmaceuticals, Inc., priority 2008, dated 2013)

Tests used:
Aβtotal = assay: Demonstration of in vivo efficacy: Aβtotal lowering in brain after single oral dose (Table 13); settings: mouse brain soluble fraction, mean, compared to untreated animals
From the text: To determine whether acute administration of an Aβ42 lowering agent would reduce Aβ42 levels in vivo, non-transgenic rodents, e.g. mice or rats were used. Alternatively, two to three month old Tg2576 mice expressing APP695 containing the “Swedish” variant can be used or a transgenic mouse model developed by Dr. Fred Van Leuven (K. U. Leuven, Belgium) and co-workers, with neuron-specific expression of a clinical mutant of the human amyloid precursor protein [V717I] (Moechars et al., 1999 J. Biol. Chem. 274, 6483). Young transgenic mice have high levels of Aβ in the brain but no detectable Aβ deposition. At approximately 6-8 months of age, the transgenic mice start to display spontaneous, progressive accumulation of β-amyloid (Aβ) in the brain, eventually resulting in amyloid plaques within the subiculum, hippocampus and cortex. Animals treated with the Aβ42 lowering agent were examined and compared to those untreated or treated with vehicle and brain levels of soluble Aβ42 and total Aβ would be quantitated by standard techniques, for example, using ELISA. Treatment periods varied from hours to days and were adjusted based on the results of the Aβ42 lowering once a time course of onset of effect could be established.
A typical protocol for measuring Aβ42 lowering in vivo is shown but it is only one of many variations that could be used to optimize the levels of detectable Aβ. For example, Aβ42 lowering compounds were formulated in 20% of Captisol® (a sulfobutyl ether of β-cyclodextrin) in water or 20% hydroxypropyl β cyclodextrin. The Aβ42 lowering agents were administered as a single oral dose or by any acceptable route of administration to overnight fasted animals. After four hours, the animals were sacrificed and Aβ42 levels were analysed.
Blood was collected by decapitation and exsanguinations in EDTA-treated collection tubes. Blood was centrifuged at 1900 g for 10 minutes at 4° C. and the plasma recovered and flash frozen for later analysis. The brain was removed from the cranium and hindbrain. The cerebellum was removed and the left and right hemisphere were separated. The left hemisphere was stored at −18° C. for quantitative analysis of test compound levels. The right hemisphere was rinsed with phosphate-buffered saline (PBS) buffer and immediately frozen on dry ice and stored at −80° C. until homogenization for biochemical assays.
Mouse brains were resuspended in 10 volumes of 0.4% DEA (diethylamine)/50 mM NaCl pH 10 (for non-transgenic animals) or 0.1% 3-[3-cholamidopropyl)-dimethyl-ammonio]-1-propanesulfonate (CHAPS) in tris buffered saline (TBS) (for transgenic animals) containing protease inhibitors (Roche-11873580001 or 04693159001) per gram of tissue, e.g. for 0.158 g brain, add 1.58 ml of 0.4% DEA. All samples were sonicated for 30 seconds on ice at 20% power output (pulse mode). Homogenates were centrifuged at 221.300×g for 50 min. The resulting high speed supernatants were then transferred to fresh tubes and were optionally further purified before the next step. A portion of the supernatant was neutralized with 10% 0.5 M Tris-HCl and this was used to quantify Aβtotal. […]
In this model at least 20% Aβ42 lowering compared to untreated animals would be advantageous.

Aβ42 = assay: Screening for γ-secretase-modulating activity, Method 1: Aβ42 sandwich ELISA in supernatant of SKNBE2 cells carrying APP 695 wild type (Tables 12a, 12b); type: cell-based
How it was run: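 SKNBE2 cells expressing wild-type APP695 were treated with compound for 18 h, and secreted Aβ42 in the medium was quantified by sandwich ELISA (C-terminal-selective capture, biotinylated 3D6 detection, TMB read at 450 nm). IC50 came from 4-parameter fits of % inhibition or % of untreated control; toxicity was checked by WST-1.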

[1] = Homo sapiens, Method 1, Table 12a, SKNBE2 cells carrying APP 695 wild type, compounds 18 hours, ELISA, curve top and bottom fixed to 100 and 0, hill slope 1
[2] = Homo sapiens, Table 12b, Method 1, SKNBE2 cells carrying APP 695 wild type, cell supernatant ELISA, averaged IC50 values, percentage of control vs log concentration

Row | Compound | IC50 (Aβ42; [1]) | IC50 (Aβ42; [2]) | melting point | IC50 (Aβ42; Table 12b, Method 1, SKNBE2 cells carrying APP 695 wild type, cell supernatant ELISA, averaged IC50 values, percentage of control vs log concentration) | Aβtotal (% Ctrl)_Mean (Aβtotal)
1 | COc1cc(Nc2cccn3cc(C4CCOCC4)nc23)ccc1-n1cnc(C)c1 [Compound 4] | 53 nM | 85 nM | – | – | 111 % Ctrl
2 | COc1cc(Nc2cccn3c(C)c(-c4ccccc4Cl)nc23)ccc1-n1cnc(C)c1 [Compound 15] | 12 nM | 11 nM | 204 °C | – | 94 % Ctrl
3 | COc1cc(Nc2cccn3c(C)c(-c4c(F)cccc4F)nc23)ccc1-n1cnc(C)c1 [Compound 27] | 25 nM | 25 nM | 198.2 °C | – | 94 % Ctrl
4 | COc1cc(Nc2cccn3c(C)c(-c4ccccc4C(F)(F)F)nc23)ccc1-n1cnc(C)c1 [Compound 29] | 10 nM | 8 nM | – | – | 86 % Ctrl
5 | Cc1ncn(-c2ccc(Nc3cccn4cc(-c5ccccc5C)nc34)cc2)n1 [Compound 71] | 288 nM | – | – | – | 103 % Ctrl
6 | COc1nc(Nc2cccn3c(C)c(-c4ccccc4C(F)(F)F)nc23)ccc1-n1cnc(C)c1 [Compound 138] | – | – | – | 9 nM | 102 % Ctrl

Now from value to compound, other results behind:

Row | IC50 (Aβ42; [1]) | IC50 (Aβ42; [2]) | melting point | IC50 (Aβ42; Table 12b, Method 1, SKNBE2 cells carrying APP 695 wild type, cell supernatant ELISA, averaged IC50 values, percentage of control vs log concentration) | Compound | Aβtotal (% Ctrl)_Mean (Aβtotal)
7 | 101 nM | 98 nM | 209.2 °C | – | COc1cc(Nc2cccn3cc(-c4ccc(F)cc4)nc23)ccc1-n1cnc(C)c1 [Compound 1] | 103 % Ctrl
8 | 65 nM | 55 nM | 168.9 °C | – | COc1cc(Nc2cccn3c(Cl)c(-c4ccc(F)cc4)nc23)ccc1-n1cnc(C)c1 [Compound 2] | 106 % Ctrl
9 | 14 nM | 12 nM | 177.8 °C | – | COc1cc(Nc2cccn3c(C)c(-c4ccccc4)nc23)ccc1-n1cnc(C)c1 [Compound 5] | 96 % Ctrl
10 | 31 nM | 27 nM | – | – | COc1cccc(-c2cn3cccc(Nc4ccc(-n5cnc(C)c5)c(OC)c4)c3n2)c1 [Compound 33] | 98 % Ctrl
11 | 253 nM | 251 nM | – | – | COc1cc(Nc2cccn3cc(C)nc23)ccc1-n1cnc(C)c1 [Compound 50] | 96 % Ctrl
